# Reference: the Deep4Chem optical property database
# Test: solvent given as SMILES
structure (smiles),measurement,setting,value
F[B-]1(F)n2c(ccc2N2CCOCC2)C(c2ccccc2)=C2C=CC(N3CCOCC3)=[N+]21,absorption maximum,in CC#N,566 nm
same,absorption maximum,in CCCCCC,573 nm
same,absorption maximum,in CCOC(C)=O,570 nm
same,absorption maximum,in CO,561 nm
same,absorption maximum,in ClCCl,572 nm
CCCCCCOc1ccc(N(c2ccc(OCCCCCC)cc2)c2ccc(-c3sc(-c4ccc(N(c5ccc(OCCCCCC)cc5)c5ccc(OCCCCCC)cc5)cc4)c4nc(-c5ccccc5)c(-c5ccccc5)nc34)cc2)cc1,absorption maximum,in C1CCOC1,601 nm
same,absorption maximum,in CC(C)=O,592 nm
same,absorption maximum,in CCOC(C)=O,594 nm
same,absorption maximum,in CCOCC,600 nm
same,absorption maximum,in CN(C)C=O,598 nm
same,absorption maximum,in Cc1ccccc1,600 nm
same,absorption maximum,in ClC(Cl)Cl,601 nm
same,absorption maximum,in ClCCl,600 nm
COc1c(Br)c2cc(=O)oc3ccc4cccc1c4c32,absorption maximum,in CC1CCCO1,475 nm
Cc1ccccc1,absorption maximum,in C1CCCCC1,256.48 nm
Clc1nnc(Oc2ccc(N(c3ccc(Br)cc3)c3ccc(Br)cc3)cc2)nn1,absorption maximum,in ClCCl,524 nm
F[B-]1(F)OC(c2ccccc2)=Nc2sc(-c3ccccc3)n[n+]21,absorption maximum,in C1CCOC1,332 nm
same,absorption maximum,in CC#N,330 nm
same,absorption maximum,in CCO,328 nm
same,absorption maximum,in CCOC(C)=O,331 nm
same,absorption maximum,in Cc1ccccc1,337 nm
same,absorption maximum,in ClC(Cl)Cl,335 nm
same,absorption maximum,in ClCCl,333 nm
Cc1ccc(C)n1-c1cccc(C#N)c1,absorption maximum,in ClCCl,259 nm
COc1ccc(-c2cnc(/C=C/c3ccc(OC)c(OC)c3)o2)cc1,absorption maximum,in ClCCl,360 nm
Cc1nc2c(cc3c4c(cccc42)C(=O)OC3=O)o1,absorption maximum,in CCO,360 nm
CCn1c2sccc2c2c3nsnc3c3c4ccsc4n(CC)c3c21,absorption maximum,in C1CCOC1,424 nm
same,absorption maximum,in CCOC(C)=O,422 nm
same,absorption maximum,in CN(C)C=O,430 nm
same,absorption maximum,in Cc1ccccc1,423 nm
same,absorption maximum,in ClCCl,425 nm
COc1ccc(N(c2ccc(OC)cc2)c2ccc3ccc4c(B(c5c(C)cc(C)cc5C)c5c(C)cc(C)cc5C)ccc5ccc2c3c54)cc1,absorption maximum,in C1CCOC1,465 nm
same,absorption maximum,in CC(C)=O,459 nm
same,absorption maximum,in CCCCCC,463 nm
same,absorption maximum,in Cc1ccccc1,469 nm
same,absorption maximum,in ClC(Cl)Cl,461 nm
same,absorption maximum,in ClCCl,461 nm
CCC1(CC)c2ccccc2-c2c1c1c(c3c2C(CC)(CC)c2cc(/C=C/c4cccs4)ccc2-3)C(CC)(CC)c2ccccc2-1,absorption maximum,in C1CCOC1,382 nm
CCN(CC)c1ccc(-c2nc(Oc3ccc(-c4nc5cc([N+](=O)[O-])ccc5[nH]4)cc3)nc(Oc3ccc(-c4nc5cc([N+](=O)[O-])ccc5[nH]4)cc3)n2)cc1,absorption maximum,in CN(C)C=O,383 nm
c1ccc(-n2c(-c3ccc(N(c4ccc(-c5ccc(N(c6ccc(-c7nc8c9ccccc9c9ccccc9c8n7-c7ccccc7)cc6)c6ccc(-c7nc8c9ccccc9c9ccccc9c8n7-c7ccccc7)cc6)cc5)cc4)c4ccc(-c5nc6c7ccccc7c7ccccc7c6n5-c5ccccc5)cc4)cc3)nc3c4ccccc4c4ccccc4c32)cc1,absorption maximum,in ClCCl,376 nm
COc1ccc2c(c1)[n+]([O-])nc(N)[n+]2[O-],absorption maximum,in CC#N,432 nm
same,absorption maximum,in O,440 nm
CCC1=C(C)C(=O)n2c1cc1c(C)c(CC(=O)OC)c(C)n1c2=O,absorption maximum,in CC#N,413 nm
same,absorption maximum,in CC(C)=O,413 nm
same,absorption maximum,in CO,420 nm
same,absorption maximum,in CS(C)=O,421 nm
same,absorption maximum,in ClC(Cl)Cl,423 nm
same,absorption maximum,in c1ccccc1,416 nm
COc1ccc(-c2c3ccccc3c(-c3ccc(OC)cc3)c3cc4sc(C)cc4cc23)cc1,absorption maximum,in ClCCl,450 nm
CCCCCCn1c2cc(/C=C/c3ccccc3)ccc2c2ccc(/C=C/c3ccccc3)cc21,absorption maximum,in ClC(Cl)Cl,390.62 nm
C(=C\c1ccccc1)/c1ccccc1,absorption maximum,in CC#N,307 nm
O=C1C=C(Nc2ccc([N+](=O)[O-])cc2)C(=O)c2ccccc21,absorption maximum,in CO,451 nm
CCCCCCC(CCCCCC)N1C(=O)c2cccc3c(-c4ccc(OC)cc4)ccc(c23)C1=O,absorption maximum,in CCCCCC,354.2 nm
same,absorption maximum,in CCCCCCCCCCCCCC,356.4 nm
same,absorption maximum,in CCCCCCCCCCCO,365.6 nm
same,absorption maximum,in CCCCO,366.2 nm
same,absorption maximum,in CN(C)C=O,368 nm
same,absorption maximum,in Cc1ccccc1,364.2 nm
same,absorption maximum,in ClC(Cl)Cl,364.8 nm
CCCCn1c2ccccc2c2ccc3c4cc(-c5ccc6ccccc6c5)ccc4n(CCCC)c3c21,absorption maximum,in ClC(Cl)Cl,332 nm
COc1ccc(C(=Cc2ccc(C=O)cc2)c2ccc(OC)cc2)cc1,absorption maximum,in C1CCOC1,356 nm
O=C(O)CCCCCn1c2ccc(Br)cc2c(=O)c2cc3c(cc21)c(=O)c1cc(Br)ccc1n3CCCCCC(=O)O,absorption maximum,in CO,533 nm
Cc1cc(O)c(C(=O)/C=C/c2ccccc2O)c(=O)o1,absorption maximum,in CC#N,359 nm
same,absorption maximum,in ClCCl,360 nm
O=P(c1c2ccccc2cc2ccccc12)(c1c2ccccc2cc2ccccc12)c1c2ccccc2cc2ccccc12,absorption maximum,in C1CCOC1,411 nm
CO[B-]1(OC)n2c(C)cc(C)c2C(c2ccc(I)cc2)=C2C(C)=CC(C)=[N+]21,absorption maximum,in ClC(Cl)Cl,505 nm
COc1ccc(-c2ncc3ccccn23)cc1,absorption maximum,in ClC(Cl)Cl,306 nm
CC(C)(C)c1ccc2c(c1)c1cc(C(C)(C)C)ccc1n2-c1ccc2oc3nc4oc5cc(C(F)(F)F)ccc5c4cc3c2c1,absorption maximum,in ClC(Cl)Cl,346 nm
CC(C)(C)Nc1cc(F)c(C(=O)c2cc(F)c(NC(C)(C)C)cc2F)cc1F,absorption maximum,in CCO,348 nm
CN(c1ccccc1)c1ccc(N(c2ccccc2)c2ccc3ccc4c(N(c5ccccc5)c5ccc(N(C)c6ccccc6)cc5)ccc5ccc2c3c54)cc1,absorption maximum,in ClCCl,435 nm
COCc1ncc(-c2c3ccccc3c(-c3cnc(COC)nc3)c3ccccc23)cn1,absorption maximum,in CCO,395 nm
same,absorption maximum,in ClCCl,397 nm
Oc1ccccc1,absorption maximum,in C1CCCCC1,265.96 nm
N#C/C(=C\c1cc(/C=C(\C#N)c2ccc(C(F)(F)F)cc2)c(-c2ccc(N(c3ccccc3)c3ccccc3)cc2)cc1-c1ccc(N(c2ccccc2)c2ccccc2)cc1)c1ccc(C(F)(F)F)cc1,absorption maximum,in C1CCCCC1,405 nm
same,absorption maximum,in C1CCOC1,402 nm
same,absorption maximum,in CCCCCC,402 nm
same,absorption maximum,in CCOC(C)=O,397 nm
same,absorption maximum,in Cc1ccccc1,408 nm
same,absorption maximum,in ClC(Cl)Cl,407 nm
same,absorption maximum,in ClCCl,405 nm
CN(C)/C=N\c1ccc2c3c(cccc13)C(=O)c1ccccc1-2,absorption maximum,in C1CCOC1,459 nm
same,absorption maximum,in CCCCCC,437 nm
same,absorption maximum,in CCO,471 nm
same,absorption maximum,in CCOC(C)=O,459 nm
same,absorption maximum,in CN(C)C=O,479 nm
same,absorption maximum,in CO,470 nm
same,absorption maximum,in Cc1ccccc1,454 nm
same,absorption maximum,in ClC(Cl)(Cl)Cl,448 nm
same,absorption maximum,in ClC(Cl)Cl,464 nm
same,absorption maximum,in ClCCl,467 nm
same,absorption maximum,in c1ccccc1,456 nm
O=C1CCCC2=C1CC1=C(CCCC1=O)N2NC(=O)c1ccccc1,absorption maximum,in C1CCOC1,366 nm
same,absorption maximum,in CC#N,368 nm
same,absorption maximum,in CC(C)=O,366 nm
same,absorption maximum,in CCCCCO,376 nm
same,absorption maximum,in CO,374 nm
same,absorption maximum,in ClC(Cl)Cl,370 nm
same,absorption maximum,in ClCCl,364 nm
CCOC(=O)CCOc1ccc(C(c2c(C)[nH]c3ccccc23)c2c(C)[nH]c3ccccc23)cc1,absorption maximum,in C1CCCCC1,290 nm
Oc1cccc2ccccc12,absorption maximum,in C1CCCCC1,303.49 nm
COC(=O)C(Cc1ccc2oc(-c3ccc(-n4c5ccccc5c5ccccc54)cc3)nc2c1)NC(=O)OC(C)(C)C (stereo not given),absorption maximum,in C1CCCCC1,340 nm
same,absorption maximum,in C1CCOC1,341.8 nm
same,absorption maximum,in C1COCCO1,341.4 nm
same,absorption maximum,in CC1CCCO1,341.41 nm
same,absorption maximum,in CC#N,340 nm
same,absorption maximum,in CC(C)(C)O,341.8 nm
same,absorption maximum,in CC(C)=O,340.7 nm
same,absorption maximum,in CC(C)CC(C)(C)C,339.9 nm
same,absorption maximum,in CC(C)O,340.48 nm
same,absorption maximum,in CC(O)CO,342.3 nm
same,absorption maximum,in CCCCCCCO,342.5 nm
same,absorption maximum,in CCCCCCO,342.59 nm
same,absorption maximum,in CCCCCO,340.8 nm
same,absorption maximum,in CCCCO,341.8 nm
same,absorption maximum,in CCO,340.48 nm
same,absorption maximum,in CCOC(C)=O,340.02 nm
same,absorption maximum,in CCOCC,339.6 nm
same,absorption maximum,in CN(C)C=O,342.11 nm
same,absorption maximum,in CO,339.7 nm
same,absorption maximum,in CS(C)=O,343.6 nm
same,absorption maximum,in Cc1ccccc1,342.61 nm
same,absorption maximum,in OCCO,343.21 nm
COC(=O)/C=C/c1sc(-c2ccc(N(C)C)cc2)c(-c2ccc(OC)cc2)c1O,absorption maximum,in CC#N,451 nm
N#Cc1ccc(/C=C/c2ncc(-c3ccccc3)o2)cc1,absorption maximum,in ClCCl,360 nm
CN(C)CCN(Cc1c2ccccc2c(CN(CCN(C)C)c2ccc([N+](=O)[O-])cc2[N+](=O)[O-])c2ccccc12)c1ccc([N+](=O)[O-])cc1[N+](=O)[O-],absorption maximum,in C1CCCCC1,340 nm
same,absorption maximum,in C1CCOC1,351 nm
same,absorption maximum,in CC#N,347 nm
same,absorption maximum,in CC(C)=O,352 nm
same,absorption maximum,in CCO,341 nm
same,absorption maximum,in CN(C)C=O,340 nm
same,absorption maximum,in CO,341 nm
same,absorption maximum,in ClC(Cl)Cl,342 nm
CCCCCCCCCCCCCCCC[n+]1ccc(/C=C(\C)c2ccccc2)cc1,absorption maximum,in C1COCCO1,387.4 nm
same,absorption maximum,in CC(C)=O,383.2 nm
same,absorption maximum,in CC(C)O,385.4 nm
same,absorption maximum,in CCCCCC,398.5 nm
same,absorption maximum,in CCCCO,390.5 nm
same,absorption maximum,in CCCO,398.5 nm
same,absorption maximum,in CCO,399.5 nm
same,absorption maximum,in CN(C)C=O,384.4 nm
same,absorption maximum,in CO,400.6 nm
same,absorption maximum,in CS(C)=O,384.6 nm
same,absorption maximum,in Cc1ccccc1,393.5 nm
same,absorption maximum,in ClC(Cl)(Cl)Cl,399.5 nm
same,absorption maximum,in ClC(Cl)Cl,384 nm
same,absorption maximum,in ClCCl,386.4 nm
same,absorption maximum,in c1ccccc1,386.8 nm
COc1c2ccccc2c(OC)c2c(C#Cc3ccccc3)c3cc4sccc4cc3c(C#Cc3ccccc3)c12,absorption maximum,in ClCCl,656 nm
CCCCCCCCCCCCC1(CCCCCCCCCCCC)c2cc(-c3ccc(C=C4C(=O)c5ccccc5C4=O)cc3)ccc2-c2ccc(-c3ccc(C=C4C(=O)c5ccccc5C4=O)cc3)cc21,absorption maximum,in C1CCOC1,433 nm
same,absorption maximum,in CC(C)=O,429 nm
same,absorption maximum,in CCCCCC,419 nm
same,absorption maximum,in CS(C)=O,437 nm
same,absorption maximum,in Cc1ccccc1,429 nm
same,absorption maximum,in ClC(Cl)Cl,438 nm
CC(C)(C)c1cc2ccc3c(-c4ccc(N(c5ccccc5)c5ccccc5)cc4)ccc4c5nc6cc(C#N)c(C#N)cc6nc5c(c1)c2c34,absorption maximum,in Cc1ccccc1,500 nm
